Source: publication PMC10791652, “The adhesion GPCR GPR116/ADGRF5 has a dual function in pancreatic islets regulating somatostatin release and islet development” (Communications Biology, 2024)
Numbered stars: 1 amine (or outer) side, 2 acyl side, 3 side chain; on linkers, the order of the positions; unused ones are H or OH. Bridge positions count the residues as written; N and C are the ends. Square brackets hold non-standard residues; d marks the D form. Ends that are not written are not given here. Peptide text beside a SMILES is read from it. * marks the point of attachment. Leu(3R-OH,Nα-propionyl) = CCC(=O)N[C@H](C(=O)*)[C@H](O)C(C)C; X1 = CC(C)[C@@H](O[*:3])[C@H](N[*:1])C(=O)[*:2]; NMeT = CN[C@H](C(=O)O)[C@@H](C)O; dPhLac = O=C(O)[C@H](O)Cc1ccccc1; NMeA = CN[C@@H](C)C(=O)O; NMeDha = C=C(NC)C(=O)O

How the values were obtained:
[1] = system: growth hormone secretagogue receptor/ghrelin (GHS-R) receptor; assay: Fura-2 Ca2+ imaging in intact pancreatic islets (ghrelin); assay type: cell-based, mouse; details: 300 nM ghrelin
[2] = system: endogenous purinergic receptors; assay: Fura-2 Ca2+ imaging in HEK293T cells (ATP control); assay type: cell-based; details: 100 µM ATP
Experimental: (§1) Fura-2-based Ca^2+ imaging was performed in transfected HEK293T cells (Supplementary Experimental Procedures) and intact pancreatic islets using a monochromator-based imaging system, and the imaging software TILLvisION 4.0 (T.I.L.L. Photonics). Emitted fluorescence (excited at 340 and 380 nm) was acquired at intervals of 2 seconds and corrected for background fluorescence. HEK293T cells and islets were loaded with 5 µM fura-2 AM in standard bath solution containing 140 mM NaCl, 10 mM HEPES, 5 mM KCl, 2 mM CaCl2, 1 mM MgCl2, and 3 mM glucose for 30 or 60 min. HEK293T cells (25,000 cells/well) were seeded into 24-well plates on poly-L-lysine coated glass cover slips and were transiently transfected with plasmids encoding for GPR116 and GFP the next day. Ca^2+ imaging was carried out 72 h post transfection. HEK293T cells were exposed to p116sc, p116 (1 mM each), and ATP (100 µM) in standard bath solution. Pancreatic mouse islets (3 - 4 islets per coverslip) were transferred one day after preparation into 12-well plates on poly-L-lysine coated glass cover slips. 48 h after seeding islets were exposed to 1 mM p116sc, 1 mM p116, and 100 µM carbachol (CCh) in standard bath solution.

[3] = system: mock-transfected HEK293T cells; assay: Fura-2 Ca2+ imaging in mock-transfected HEK293T cells; assay type: cell-based; details: 1 mM peptide or 100 µM ATP
Experimental: as §1

Gαq/11 protein = assay: Somatostatin secretion from islets after pre-incubation with Gq inhibitor; assay type: cell-based, mouse; details: pre-incubation with FR900359, then 2 mM p116, high glucose, 30 min
Experimental: Equilibration of five islets was performed in KRB containing 2.8 mM glucose for 30 min at 37 °C in 96-well plates. If not mentioned otherwise, islets were stimulated with peptide solution or respective controls in KRB for 30 min at 37 °C. Islets were lysed with acid ethanol and supernatant as well as lysates kept frozen at −20 °C until measurement. To measure insulin the AlphaLISA technology (Perkin Elmer) was used according to the manufacturer’s protocol in 384-well OptiPlate microplates (Perkin Elmer) with the EnVision Multilabel Reader (Perkin Elmer). Somatostatin amounts were determined using either AlphaLISA (Perkin Elmer) or ELISA (Phoenix Pharmaceuticals). For reliable measurement protocol adaptions were necessary. For AlphaLISA these were as follows: increasing sample volumes to 35 µl/well, reduced bead volume of 5 µl/well, and an extended incubation period with donor beads of 90 min. For the ELISA measurement the sample incubation time was extended to over-night and the biotinylated peptide was diluted 1:5 to achieve reliable results.

[4] = system: muscarinic acetylcholine receptors; assay: Fura-2 Ca2+ imaging in intact pancreatic islets (carbachol positive control); assay type: cell-based, mouse; details: 100 µM carbachol, fura-2 ratio F340/F380
Experimental: as §1

ghrelin (GSSFLSPEHQRVQQRKESKKPPAKLQP; ends and bridges not checked; UniProt Q9UBU3 24-50, looked up)
Ca2+ response in insulin-expressing beta cells of islets ([1]; MIP-GFP mouse islets, EGFP-positive regions): absent in insulin-expressing beta cells
Ca2+ response in pancreatic islets ([1]; then 1 mM p116, MIP-GFP mouse islets): elicited Ca^2+ signals with partially overlapping localization

Nc1ncnc2c1ncn2[C@@H]1O[C@H](COP(=O)(O)OP(=O)(O)OP(=O)(O)O)[C@@H](O)[C@H]1O [ATP]
intracellular Ca2+ transients in GPR116-transfected HEK293T cells [2]: induced
intracellular Ca2+ response in mock-transfected cells [3]: strongly increased intracellular Ca2+ levels

C=C1C(=O)N[C@@H](C)C(=O)N(C)[C@@H](C)C(=O)N[C@@H]([C@H](OC(=O)[C@@H](NC(=O)CC)[C@H](O)C(C)C)C(C)C)C(=O)N(C)[C@@H]([C@@H](C)OC)C(=O)O[C@H](C(C)C)[C@H](NC(C)=O)C(=O)O[C@H](Cc2ccccc2)C(=O)N1C [FR900359] (Ac-[X1][dPhLac][NMeDha]A[NMeA][X1](Leu(3R-OH,Nα-propionyl))[NMeT](Me); ester 1-C)
effect of Gq inhibitor on p116-induced somatostatin secretion (Gαq/11 protein): completely abolished somatostatin secretion

C[N+](C)(C)CCOC(N)=O [CCh, carbachol]
Ca2+ response in pancreatic islets [4]: strong Ca^2+ elevation
